Test results taken from patent US20240383898A1, “PYRIDO RING COMPOUND, PREPARATION METHOD THEREFOR, INTERMEDIATE, COMPOSITION, AND APPLICATION” (YIYOU BIOTECH (SHANGHAI) CO., LTD, priority 2021, published 2024).

Tests used:
JAK1 = molecular target: T1, JAK1 (Homo sapiens, UniProt P23458); assay: In vitro activity test of JAK1 kinase (Caliper EZ Reader conversion assay); type: biochemical; conditions: enzyme activity, 10 concentrations from 1000 nM, 3-fold dilution
T1 construct: purchased Carna 08-114
T1 sequence (P23458 whole entry, species assumed): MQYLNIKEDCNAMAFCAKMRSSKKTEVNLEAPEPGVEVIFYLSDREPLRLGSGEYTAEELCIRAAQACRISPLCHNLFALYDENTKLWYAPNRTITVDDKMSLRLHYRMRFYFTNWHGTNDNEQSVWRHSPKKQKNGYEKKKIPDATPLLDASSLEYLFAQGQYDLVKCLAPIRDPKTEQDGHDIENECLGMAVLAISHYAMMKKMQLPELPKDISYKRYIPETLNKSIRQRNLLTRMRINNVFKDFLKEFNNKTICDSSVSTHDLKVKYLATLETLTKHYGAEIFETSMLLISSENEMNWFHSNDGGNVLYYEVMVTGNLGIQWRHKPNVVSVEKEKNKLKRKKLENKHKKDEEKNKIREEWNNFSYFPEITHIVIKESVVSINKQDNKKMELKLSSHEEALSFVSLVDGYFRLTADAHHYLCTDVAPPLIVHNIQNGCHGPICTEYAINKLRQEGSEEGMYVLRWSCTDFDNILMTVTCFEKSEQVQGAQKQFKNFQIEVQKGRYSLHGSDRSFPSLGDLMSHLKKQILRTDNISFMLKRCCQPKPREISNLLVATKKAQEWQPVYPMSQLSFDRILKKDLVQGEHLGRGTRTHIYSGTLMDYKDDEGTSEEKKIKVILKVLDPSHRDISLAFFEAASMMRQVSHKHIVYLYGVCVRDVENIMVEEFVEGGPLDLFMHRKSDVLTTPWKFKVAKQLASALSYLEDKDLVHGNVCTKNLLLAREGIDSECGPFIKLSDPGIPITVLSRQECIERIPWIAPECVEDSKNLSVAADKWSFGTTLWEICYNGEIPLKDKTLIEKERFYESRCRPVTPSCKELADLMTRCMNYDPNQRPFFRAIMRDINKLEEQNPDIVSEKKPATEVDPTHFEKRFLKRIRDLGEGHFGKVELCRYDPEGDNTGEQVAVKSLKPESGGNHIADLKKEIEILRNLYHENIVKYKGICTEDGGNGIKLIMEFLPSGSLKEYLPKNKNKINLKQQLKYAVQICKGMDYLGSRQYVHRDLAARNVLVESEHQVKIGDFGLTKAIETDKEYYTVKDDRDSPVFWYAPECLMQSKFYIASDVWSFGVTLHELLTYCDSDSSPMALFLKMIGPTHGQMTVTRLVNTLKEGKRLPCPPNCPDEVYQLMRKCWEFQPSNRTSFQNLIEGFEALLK
Protocol: (§1) In Vitro Activity Test of JAK1 and JAK2 Kinases
(§2) • Centrifuge (manufacturer: Eppendorf, model: 5430) • ELISA Instrument (Manufacturer: Perkin Elmer, Model: Caliper EZ Reader 1I) • Echo 550 (Manufacturer: Labcyte, Model: Echo 550)
(§3) (1) Prepare 1 Kinase buffer.
(§4) (2) Compound concentration gradient preparation: The test compound was tested at 1000 nM, 3-fold dilution, 10 concentrations, two-well assay, and configured to a 100-fold final concentration in a 384-well plate. 250 nl of the test compound was then transferred to the 384 reaction plate using Echo550. 250 nl of 100% DMSO was added to each of the negative and positive control wells.
(§5) (3) Prepare 2.5 times the final concentration of kinase solution with 1×Kinase buffer.
(§6) (4) Add 10 μL of 2.5 times the final concentration of kinase solution to the compound wells and 10 μL of 1×Kinase buffer to the negative control wells.
(§7) (5) Centrifuge at 1000 rpm for 30 seconds, mix well with shaking, and incubate at room temperature for 10 minutes.
(§8) (6) Prepare a 25/15-fold final concentration of mixture of ATP and Kinase substrate with 1×Kinase buffer.
(§9) (7) Add 15 μL of a mixture of 25/15 times the final concentration of ATP and substrate to start the reaction.
(§10) (8) Centrifuge the 384-well plate at 1000 rpm for 30 seconds, mix well with shaking, and incubate at room temperature for an appropriate amount of time.
(§11) (9) Stop the kinase reaction by adding 30 μL of termination solution, centrifuge at 1000 rpm for 30 seconds, and mix well with shaking.
(§12) (10) Read the conversion rate with Caliper EZ Reader.
(§13) where: Conversion %_sample is the conversion rate reading of the sample-, Conversion %_min: the average value of the negative control wells, representing the conversion reading of the wells without enzyme activity: Conversion %-max: the average value of the positive control wells, representing the conversion reading of the wells without compound inhibition.
(§14) The log value of concentration was used as the X-axis and the percentage inhibition as the Y-axis, and the function of the analytical software GraphPad Prism 5; log(inhibitor) vs. response -Variable slope, was used to lit dose-effect curves to obtain the IC50) values of each compound on enzyme activity.
(§15) The formula is Y=Bottom+(Top-Bottom)/(1+10^((LogIC50-X)*HillSlope))
(§16) The 1C50 data are specified in Table 1.

JAK2 = molecular target: T2, JAK2 (Homo sapiens, UniProt O60674); assay: In vitro activity test of JAK2 kinase (Caliper EZ Reader conversion assay); type: biochemical; conditions: enzyme activity, 10 concentrations from 1000 nM, 3-fold dilution
T2 construct: purchased Carna 08-045
T2 sequence (O60674 whole entry, species assumed): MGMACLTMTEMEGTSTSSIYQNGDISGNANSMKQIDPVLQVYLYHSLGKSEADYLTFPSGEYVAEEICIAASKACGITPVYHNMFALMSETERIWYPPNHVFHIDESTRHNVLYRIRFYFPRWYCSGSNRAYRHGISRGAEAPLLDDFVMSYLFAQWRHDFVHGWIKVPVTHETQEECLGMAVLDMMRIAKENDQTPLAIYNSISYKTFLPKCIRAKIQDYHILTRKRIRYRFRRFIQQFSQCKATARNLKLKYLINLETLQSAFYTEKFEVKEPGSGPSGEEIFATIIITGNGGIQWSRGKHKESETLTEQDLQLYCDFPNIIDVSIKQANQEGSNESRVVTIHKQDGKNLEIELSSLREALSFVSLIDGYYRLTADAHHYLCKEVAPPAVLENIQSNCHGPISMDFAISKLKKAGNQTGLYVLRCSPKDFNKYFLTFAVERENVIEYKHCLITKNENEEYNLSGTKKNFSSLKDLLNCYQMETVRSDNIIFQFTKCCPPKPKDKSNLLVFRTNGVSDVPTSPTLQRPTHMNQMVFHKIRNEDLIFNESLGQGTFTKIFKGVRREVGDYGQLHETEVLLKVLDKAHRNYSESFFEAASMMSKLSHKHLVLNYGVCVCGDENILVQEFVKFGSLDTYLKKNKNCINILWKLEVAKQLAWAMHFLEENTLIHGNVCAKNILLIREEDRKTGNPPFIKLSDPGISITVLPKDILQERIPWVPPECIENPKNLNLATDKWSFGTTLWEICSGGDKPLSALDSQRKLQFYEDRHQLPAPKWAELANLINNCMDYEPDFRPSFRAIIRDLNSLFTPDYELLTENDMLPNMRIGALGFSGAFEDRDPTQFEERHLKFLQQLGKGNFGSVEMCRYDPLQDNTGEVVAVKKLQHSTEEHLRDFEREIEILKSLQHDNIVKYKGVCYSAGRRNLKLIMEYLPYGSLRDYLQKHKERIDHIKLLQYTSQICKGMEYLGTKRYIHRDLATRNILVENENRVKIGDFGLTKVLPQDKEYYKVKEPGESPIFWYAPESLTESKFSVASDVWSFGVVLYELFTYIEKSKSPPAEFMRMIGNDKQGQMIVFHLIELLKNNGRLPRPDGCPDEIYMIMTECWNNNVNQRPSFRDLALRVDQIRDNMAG
Protocol: as §1, §2, §3, §4, §5, §6, §7, §8, §9, §10, §11, §12, §13, §14, §15, §16

Compound	IC50 (JAK1)	IC50 (JAK2)
N#C[C@H]1CC[C@H](n2c(-c3cccc(O)c3)nc3cnc4[nH]ccc4c32)CC1 (stereo in doubt) [LXS35, trans-4-(2-(3-Hydroxyphenyl)imidazo[4,5-d]pyrrolo[2,3-b]pyridin-1(6H)-yl)cyclohexanecarbonitrile]	0.01 to 0.1 µM	< 0.01 µM
N#C[C@H]1CC[C@H](n2c(-c3ccc(O)cc3O)nc3cnc4[nH]ccc4c32)CC1 (stereo in doubt) [LXS36, trans-4-(2-(2,4-Dihydroxyphenyl)imidazo[4,5-d]pyrrolo[2,3-b]pyridin-1(6H)-yl)cyclohexanecarbonitrile]	0.01 to 0.1 µM	0.01 to 0.1 µM
N#C[C@H]1CC[C@H](n2c(-c3ccc(C(F)(F)F)cc3)nc3cnc4[nH]ccc4c32)CC1 (stereo in doubt) [LXS37, trans-4-(2-(4-(Trifluoromethyl)phenyl)imidazo[4,5-d]pyrrolo[2,3-b]pyridin-1(6H)-yl)cyclohexanecarbonitrile]	0.1 to 1 µM	0.1 to 1 µM
N#C[C@H]1CC[C@H](n2c(-c3ccccc3O)nc3cnc4[nH]ccc4c32)CC1 (stereo in doubt) [LXS38, trans-4-(2-(2-Hydroxyphenyl)imidazo[4,5-d]pyrrolo[2,3-b]pyridin-1(6H)-yl)cyclohexanecarbonitrile]	0.01 to 0.1 µM	0.01 to 0.1 µM
N#C[C@H]1CC[C@H](n2c(-c3ccc(O)cc3F)nc3cnc4[nH]ccc4c32)CC1 (stereo in doubt) [LXS39, trans-4-(2-(2-Fluoro-4-hydroxyphenyl)imidazo[4,5-d]pyrrolo[2,3-b]pyridin-1(6H)-yl)cyclohexanecarbonitrile]	0.01 to 0.1 µM	0.1 to 1 µM
N#C[C@H]1CC[C@H](n2c(-c3ccccc3F)nc3cnc4[nH]ccc4c32)CC1 (stereo in doubt) [LXS40, trans-4-(2-(2-Fluorophenyl)imidazo[4,5-d]pyrrolo[2,3-b]pyridin-1(6H)-yl)cyclohexanecarbonitrile]	0.01 to 0.1 µM	0.01 to 0.1 µM
COc1ccc(-c2nc3cnc4[nH]ccc4c3n2C2CCC(C#N)CC2)c(O)c1 (stereo in doubt) [LXS41, trans-4-(2-(2-Hydroxy-4-methoxyphenyl)imidazo[4,5-d]pyrrolo[2,3-b]pyridin-1(6H)-yl)cyclohexanecarbonitrile]	0.1 to 1 µM	0.1 to 1 µM
CSc1ccc(-c2nc3cnc4[nH]ccc4c3n2C2CCC(C#N)CC2)cc1 (stereo in doubt) [LXS42, trans-4-(2-(4-(Methylthio)phenyl)imidazo[4,5-d]pyrrolo[2,3-b]pyridin-1(6H)-yl)cyclohexanecarbonitrile]	0.1 to 1 µM	0.1 to 1 µM
N#C[C@H]1CC[C@H](n2c(-c3ccc(F)cc3)nc3cnc4[nH]ccc4c32)CC1 (stereo in doubt) [LXS43, trans-4-(2-(4-Fluorophenyl)imidazo[4,5-d]pyrrolo[2,3-b]pyridin-1(6H)-yl)cyclohexanecarbonitrile]	0.01 to 0.1 µM	0.1 to 1 µM
CS(=O)(=O)c1ccc(C2Nc3cnc4[nH]ccc4c3N2C2CCC(C#N)CC2)cc1 (stereo in doubt) [LXS44, trans-4-(2-(4-(Methylsulfonyl)phenyl)-2,3-dihydroimidazo[4,5-d]pyrrolo[2,3-b]pyridin-1(6H)-yl)cyclohexanecarbonitrile]	0.01 to 0.1 µM	0.01 to 0.1 µM
C[C@@H](O)c1nc2cnc3[nH]ccc3c2n1C1CCN(C(=O)OC(C)(C)C)C1 (stereo partly drawn) [LXS01, tert-butyl 3-(2-((R)-1-hydroxyethyl)imidazo[4,5-d]pyrrolo[2,3-b]pyridin-1(6H)-yl)pyrrolidine-1-carboxylate]	0.1 to 1 µM	0.1 to 1 µM
C[C@@H](O)c1nc2cnc3[nH]ccc3c2n1C1CCN(C(=O)c2ccc(C#N)cc2)C1 (stereo partly drawn) [LXS02, 4-(3-(2-((R)-1-hydroxyethyl)imidazo[4,5-d]pyrrolo[2,3-b]pyridin-1(6H)-yl)pyrrolidin-1-carbonyl)benzonitrile]	0.1 to 1 µM	0.1 to 1 µM
C[C@@H](O)c1nc2cnc3[nH]ccc3c2n1C1CCN(C(=O)c2ccc(F)cc2)C1 (stereo partly drawn) [LXS03, (4-Fluorophenyl)(3-(2-((R)-1-Hydroxyethyl)imidazo[4,5-d]pyrrolo[2,3-b]pyridin-1(6H)-yl)pyrrolidin-1-yl)methanone]	0.1 to 1 µM	0.1 to 1 µM
CCS(=O)(=O)N1CCC(n2c([C@@H](C)O)nc3cnc4[nH]ccc4c32)C1 (stereo partly drawn) [LXS04, (1R)-1-(1-(1-(ethylsulfonyl)pyrrolidin-3-yl)-1,6-dihydroimidazo[4,5-d]pyrrolo[2,3-b]pyridin-2-yl)ethan-1-ol]	0.01 to 0.1 µM	0.1 to 1 µM
CCCS(=O)(=O)N1CCC(n2c([C@@H](C)O)nc3cnc4[nH]ccc4c32)C1 (stereo partly drawn) [LXS05, (1R)-1-(1-(1-(propylsulfonyl)pyrrolidin-3-yl)-1,6-dihydroimidazo[4,5-d]pyrrolo[2,3-b]pyridin-2-yl)ethan-1-ol]	0.01 to 0.1 µM	0.1 to 1 µM
CCCCS(=O)(=O)N1CCC(n2c([C@@H](C)O)nc3cnc4[nH]ccc4c32)C1 (stereo partly drawn) [LXS06, (1R)-1-(1-(1-(butylsulfonyl)pyrrolidin-3-yl)-1,6-dihydroimidazo[4,5-d]pyrrolo[2,3-b]pyridin-2-yl)ethan-1-ol]	0.01 to 0.1 µM	0.1 to 1 µM
C[C@@H](O)c1nc2cnc3[nH]ccc3c2n1C1CCN(S(=O)(=O)c2ccccc2F)C1 (stereo partly drawn) [LXS07, (1R)-1-(1-(1-((2-fluorophenyl)sulfonyl)pyrrolidin-3-yl)-1,6-dihydroimidazo[4,5-d]pyrrolo[2,3-b]pyridin-2-yl)ethan-1-ol]	0.1 to 1 µM	0.1 to 1 µM
Cc1ccc(S(=O)(=O)N2CCC(n3c([C@@H](C)O)nc4cnc5[nH]ccc5c43)C2)cc1 (stereo partly drawn) [LXS08, (1R)-1-(1-(1-tosylpyrrolidin-3-yl)-1,6-dihydroimidazo[4,5-d]pyrrolo[2,3-b]pyridin-2-yl)ethan-1-ol]	0.1 to 1 µM	0.1 to 1 µM
C[C@@H](O)c1nc2cnc3[nH]ccc3c2n1C1CCN(S(=O)(=O)c2ccc(-c3ccccc3)cc2)C1 (stereo partly drawn) [LXS09, (1R)-1-(1-(1-([1,1′-biphenyl]-4-ylsulfonyl)pyrrolidin-3-yl)-1,6-dihydroimidazo[4,5-d]pyrrolo[2,3-b]pyridin-2-yl)ethan-1-ol]	0.1 to 1 µM	> 1 µM
C[C@@H](O)c1nc2cnc3[nH]ccc3c2n1C1CCN(S(=O)(=O)c2ccc3ccccc3c2)C1 (stereo partly drawn) [LXS10, (1R)-1-(1-(1-(naphthalen-2-ylsulfonyl)pyrrolidin-3-yl)-1,6-dihydroimidazo[4,5-d]pyrrolo[2,3-b]pyridin-2-yl)ethan-1-ol]	0.1 to 1 µM	> 1 µM
C[C@@H](O)c1nc2cnc3[nH]ccc3c2n1C1CCN(S(=O)(=O)c2ccc(OC(F)(F)F)cc2)C1 (stereo partly drawn) [LXS11, (1R)-1-(1-(1-((4-(trifluoromethoxy)phenyl)sulfonyl)pyrrolidin-3-yl)-1,6-dihydroimidazo[4,5-d]pyrrolo[2,3-b]pyridin-2-yl)ethan-1-ol]	0.01 to 0.1 µM	0.1 to 1 µM
C[C@@H](O)c1nc2cnc3[nH]ccc3c2n1C1CCN(S(=O)(=O)c2cccs2)C1 (stereo partly drawn) [LXS12, (1R)-1-(1-(1-(thiophen-2-ylsulfonyl)pyrrolidin-3-yl)-1,6-dihydroimidazo[4,5-d]pyrrolo[2,3-b]pyridin-2-yl)ethan-1-ol]	0.01 to 0.1 µM	0.1 to 1 µM
CCS(=O)(=O)N1CC(CC#N)(n2cc(-n3c(-c4ccc(CO)o4)nc4cnc5[nH]ccc5c43)cn2)C1 [LXS13, 2-(1-(ethylsulfonyl)-3-(4-(2-(5-(hydroxymethyl)furan-2-yl)imidazo[4,5-d]pyrrolo[2,3-b]pyridin-1(6H)-yl)-1H-pyrazol-1-yl)azetidin-3-yl)acetonitrile]	0.1 to 1 µM	0.01 to 0.1 µM
CCCCS(=O)(=O)N1CC(CC#N)(n2cc(-n3c(-c4ccc(CO)o4)nc4cnc5[nH]ccc5c43)cn2)C1 [LXS15, 2-(1-(butylsulfonyl)-3-(4-(2-(5-(hydroxymethyl)furan-2-yl)imidazo[4,5-d]pyrrolo[2,3-b]pyridin-1(6H)-yl)-1H-pyrazol-1-yl)azetidin-3-yl)acetonitrile]	0.1 to 1 µM	0.01 to 0.1 µM
CCCS(=O)(=O)N1CCC(n2c(-c3ccc(CO)o3)nc3cnc4[nH]ccc4c32)C1 (stereo not shown) [LXS16]	0.01 to 0.1 µM	0.01 to 0.1 µM
O=C(C1CC1)N1CCC(n2c(-c3ccc(CO)o3)nc3cnc4[nH]ccc4c32)C1 (stereo not shown) [LXS17, Cyclopropyl(3-(2-(5-(hydroxymethyl)furan-2-yl)imidazo[4,5-d]pyrrolo[2,3-b]pyridin-1(6H)-yl)pyrrolidin-1-yl) methanone]	0.01 to 0.1 µM	0.01 to 0.1 µM
